Measured values from ChEMBL document CHEMBL1255522, “Novel amides and esters prodrugs of olmesartan: Synthesis, bioconversion, and pharmacokinetic evaluation” (Bioorg Med Chem Lett, 2010).

Experiment: Stability in Sprague-Dawley rat plasma assessed as compound remaining at 50 mg/ml after 30 mins
Assay type: ADME, cell-free
Conditions: read-out: Stability
A remaining at 0.5 h of 101% was found for `CCCc1nc(C(C)(C)O)c(C(=O)NCCCCCC[N+](=O)[O-])n1Cc1ccc(-c2ccccc2C2=NNNN2)cc1` in this work. A remaining at 0.5 h of 97.5% was found for `CCCc1nc(C(C)(C)O)c(C(=O)NCCCCCCC(=O)O)n1Cc1ccc(-c2ccccc2C2=NNNN2)cc1` in this work. A remaining at 0.5 h of 96.3% was found for `CCCc1nc(C(C)(C)O)c(C(=O)OCc2c[nH]c(=O)[nH]c2=O)n1Cc1ccc(-c2ccccc2C2=NNNN2)cc1` in this work. A remaining at 0.5 h of 100% was found for `CCCc1nc(C(C)(C)O)c(C(=O)OCCCCCC[N+](=O)[O-])n1Cc1ccc(-c2ccccc2C2=NNNN2)cc1` in this work. A remaining at 0.5 h of 81.1% was found for `CCCc1nc(C(C)(C)O)c(C(=O)OCCCCCCC(=O)OCC)n1Cc1ccc(-c2ccccc2C2=NNNN2)cc1` in this work. A remaining at 0.5 h of 98.8% was found for `CCCc1nc(C(C)(C)O)c(C(=O)OCCCCCCC(=O)O)n1Cc1ccc(-c2ccccc2C2=NNNN2)cc1` in this work. A remaining at 0.5 h of 98.9% was found for `CCCc1nc(C(C)(C)O)c(C(=O)NCCNCCO)n1Cc1ccc(-c2ccccc2C2=NNNN2)cc1` in this work. A remaining at 0.5 h of 90.2% was found for `CCCCCCCCOC(=O)c1c(C(C)(C)O)nc(CCC)n1Cc1ccc(-c2ccccc2C2=NNNN2)cc1` in this work.
